Data reported in patent publication US12690589B2, “Herbicidal compositions comprising pyroxasulfone” (BASF SE, priority 2024, dated 2026).

Tests used:
Assay in all cases: Post-emergence application in field trials, herbicidal activity (damage scale 0 to 100%)
Format in all cases: in vivo
[1] = tested on: Hordeum vulgare (HORVW); details: HORVW, growth stage 23-29, height 20-25 cm
Protocol: (§1) In the examples below, using the method of S. R. Colby (1967) “Calculating synergistic and antagonistic responses of herbicide combinations”, Weeds 15, p. 22ff., the value E, which is expected if the activity of the individual active compounds is only additive, was calculated:
(§2) [formula] • wherein • X=percent activity using active herbicide A at an application rate a; • Y=percent activity using active herbicide B (e.g. pyroxasulfone) at an application rate b; • E=expected activity (in %) by A+B at application rates a+b.
(§3) For 3-component mixtures the synergistic response was calculated as described in: Ferry, Nancy; Stanley, Bruce H.; and Armel, Gregory (2005). “DESIGN AND ANALYSIS OF BIOLOGICAL ASSAYS OF MIXTURES,” Conference on Applied Statistics in Agriculture. https://doi.org/10.4148/2475-7772.1133. According to this publication, the Colby calculation can be generalized to a third mixing partner, Z, employing the following formula: […]
(§4) If the value found experimentally is higher than the value E calculated according to Colby, a synergistic effect is present.
(§5) On field test sites, natural weed infestation or seeded weeds were treated post-emergence of the weeds.
(§6) In the field trials, the weeds were treated as indicated below.
(§7) In the following experiments, the herbicidal activity for the individual herbicidal compositions (solo and mixture applications) was assessed at the indicated days after treatment (DAT). The assessments for the damage on undesired weeds caused by the composition was carried out using a scale from 0 to 100%, compared to the untreated control plants. Here, 0 means no damage and 100 means complete destruction of the plants.
(§8) Herbicide A-1 (342 g/l) and pyroxasulfone (500 g/l) were, together with addition of 0.25 v/v % MSO (methylated seed oil) as adjuvant, formulated in 200 l/ha water as distribution medium and sprayed with commercial flat fan nozzles.
(§9) Herbicide A-1 (342 g/l), pyroxasulfone (500 g/l) and trifludimoxazin (500 g/l) were, together with addition of 0.25 v/v % MSO (methylated seed oil) as adjuvant, formulated in 200 l/ha water as distribution medium and sprayed with commercial flat fan nozzles.
(§10) Herbicide A-1 (342 g/I), pyroxasulfone (500 g/l) and glyphosate-isopropylammonium (356 g/l) were, together with addition of 0.25 v/v % MSO (methylated seed oil) as adjuvant, formulated in 200 l/ha water as distribution medium and sprayed with commercial flat fan nozzles.
(§11) Herbicide A-1 (342 g/l), pyroxasulfone (500 g/l) and glufosinate-P-ammonium (211 g/l) were, together with addition of 0.25 v/v % MSO (methylated seed oil) as adjuvant, formulated in 200 l/ha water as distribution medium and sprayed with commercial flat fan nozzles.
(§12) Herbicide A-1 (342 g/l), pyroxasulfone (500 g/l) and 2,4-D-choline (456 g/l) were, together with addition of 0.25 v/v % MSO (methylated seed oil) as adjuvant, formulated in 200 l/ha water as distribution medium and sprayed with commercial flat fan nozzles.

[2] = tested on: Lolium multiflorum (LOLMU)
Protocol: as §1, §2, §3, §4, §5, §6, §7, §8, §9, §10, §11, §12

[3] = tested on: Setaria verticillata (SETVE)
Protocol: as §1, §2, §3, §4, §5, §6, §7, §8, §9, §10, §11, §12

[4] = tested on: Zea mays (ZEAMX)
Protocol: as §1, §2, §3, §4, §5, §6, §7, §8, §9, §10, §11, §12

## Cn1nc(C(F)(F)F)c(CS(=O)(=O)C2=NOC(C)(C)C2)c1OC(F)F [B, pyroxasulfone]
[1]; B 70 g ai/ha, 21 DAT, Table 4.4
  % Herbicidal activity: 0%
[1]; B 70 g ai/ha, 28 DAT, Table 4.5
  % Herbicidal activity: 0%
[1]; B 90 g ai/ha, 7 DAT, Table 4.2
  % Herbicidal activity: 0%
[1]; B 90 g ai/ha, 21 DAT, Table 4.4
  % Herbicidal activity: 0%
[1]; B 90 g ai/ha, 28 DAT, Table 4.5
  % Herbicidal activity: 0%
[2]; 7 DAT, stage 22-25, height 20-25 cm, g ai/ha A-1 12.5, B 70, C-12 252
  % Herbicidal activity: 10%
[2]; 7 DAT, stage 22-25, height 20-25 cm, g ai/ha A-1 18, B 70, C-12 252
  % Herbicidal activity: 10%
[2]; 7 DAT, stage 22-25, height 20-25 cm, g ai/ha A-1 18, B 90, C-12 252
  % Herbicidal activity: 10%
[2]; 21 DAT, stage 22-25, height 20-25 cm, g ai/ha A-1 12.5, B 70, C-12 252
  % Herbicidal activity: 10%
[2]; 21 DAT, stage 22-25, height 20-25 cm, g ai/ha A-1 18, B 70, C-12 252
  % Herbicidal activity: 10%
[2]; 21 DAT, stage 22-25, height 20-25 cm, g ai/ha A-1 18, B 90, C-12 252
  % Herbicidal activity: 10%
[2]; 28 DAT, stage 22-25, height 20-25 cm, g ai/ha A-1 12.5, B 70, C-12 252
  % Herbicidal activity: 10%
[2]; 28 DAT, stage 22-25, height 20-25 cm, g ai/ha A-1 18, B 70, C-12 252
  % Herbicidal activity: 10%
[2]; 28 DAT, stage 22-25, height 20-25 cm, g ai/ha A-1 18, B 90, C-12 252
  % Herbicidal activity: 10%
[2]; LOLMU, growth stage 22-25, height 20-25 cm, B 70 g ai/ha, 21 DAT, Table 4.4
  % Herbicidal activity: 20%
[2]; LOLMU, growth stage 22-25, height 20-25 cm, B 90 g ai/ha, 7 DAT, Table 4.2
  % Herbicidal activity: 10%
[2]; LOLMU, growth stage 22-25, height 20-25 cm, B 90 g ai/ha, 21 DAT, Table 4.4
  % Herbicidal activity: 10%
[3]; 7 DAT, stage 21-23, height 8-16 cm, g ai/ha A-1 18, B 70, C-8 840
  % Herbicidal activity: 0%
[3]; 7 DAT, stage 21-23, height 8-16 cm, g ai/ha A-1 18, B 70, C-12 252
  % Herbicidal activity: 0%
[3]; 7 DAT, stage 21-23, height 8-16 cm, g ai/ha A-1 18, B 90, C-4 12.5
  % Herbicidal activity: 0%
[3]; 7 DAT, stage 21-23, height 8-16 cm, g ai/ha A-1 18, B 90, C-8 840
  % Herbicidal activity: 0%
[3]; 7 DAT, stage 21-23, height 8-16 cm, g ai/ha A-1 18, B 90, C-12 252
  % Herbicidal activity: 0%
[3]; 21 DAT, stage 21-23, height 8-16 cm, g ai/ha A-1 18, B 90, C-12 252
  % Herbicidal activity: 0%
[3]; 42 DAT, stage 21-23, height 8-16 cm, g ai/ha A-1 12.5, B 70
  % Herbicidal activity: 0%
[3]; 42 DAT, stage 21-23, height 8-16 cm, g ai/ha A-1 12.5, B 70, C-12 252
  % Herbicidal activity: 0%
[3]; 42 DAT, stage 21-23, height 8-16 cm, g ai/ha A-1 18, B 70
  % Herbicidal activity: 0%
[3]; 42 DAT, stage 21-23, height 8-16 cm, g ai/ha A-1 18, B 90, C-12 252
  % Herbicidal activity: 0%
[3]; SETVE, growth stage 21-23, height 8-16 cm, B 70 g ai/ha, 7 DAT, Table 4.1
  % Herbicidal activity: 0%
[3]; SETVE, growth stage 21-23, height 8-16 cm, B 70 g ai/ha, 21 DAT, Table 4.3
  % Herbicidal activity: 0%
[3]; SETVE, growth stage 21-23, height 8-16 cm, B 90 g ai/ha, 7 DAT, Table 4.1
  % Herbicidal activity: 0%
[3]; SETVE, growth stage 21-23, height 8-16 cm, B 90 g ai/ha, 21 DAT, Table 4.3
  % Herbicidal activity: 0%
[3]; Table 8.1, 7 DAT, stage 21-23, height 8-16 cm, g ai/ha A-1 18, B 70, C-12 1066
  % Herbicidal activity: 0%
[3]; Table 8.2, 21 DAT, stage 21-23, height 8-16 cm, g ai/ha A-1 12.5, B 70, C-12 1066
  % Herbicidal activity: 0%
[3]; Table 8.4, 42 DAT, stage 21-23, height 8-16 cm, g ai/ha A-1 12.5, B 70, C-12 1066
  % Herbicidal activity: 0%
[4]; 7 DAT, stage 15-16, height 27-33 cm, g ai/ha A-1 12.5, B 70, C-12 252
  % Herbicidal activity: 0%
[4]; 7 DAT, stage 15-16, height 27-33 cm, g ai/ha A-1 18, B 70, C-12 252
  % Herbicidal activity: 0%
[4]; 7 DAT, stage 15-16, height 27-33 cm, g ai/ha A-1 18, B 90, C-4 12.5
  % Herbicidal activity: 0%
[4]; 7 DAT, stage 15-16, height 27-33 cm, g ai/ha A-1 18, B 90, C-12 252
  % Herbicidal activity: 0%
[4]; 21 DAT, stage 15-16, height 27-33 cm, g ai/ha A-1 12.5, B 70, C-12 252
  % Herbicidal activity: 0%
[4]; 21 DAT, stage 15-16, height 27-33 cm, g ai/ha A-1 18, B 70, C-12 252
  % Herbicidal activity: 0%
[4]; 21 DAT, stage 15-16, height 27-33 cm, g ai/ha A-1 18, B 90, C-12 252
  % Herbicidal activity: 0%
[4]; 42 DAT, stage 15-16, height 27-33 cm, g ai/ha A-1 12.5, B 70, C-12 252
  % Herbicidal activity: 0%
[4]; 42 DAT, stage 15-16, height 27-33 cm, g ai/ha A-1 18, B 70, C-12 252
  % Herbicidal activity: 0%
[4]; 42 DAT, stage 15-16, height 27-33 cm, g ai/ha A-1 18, B 90, C-12 252
  % Herbicidal activity: 0%
[4]; Table 8.1, 7 DAT, stage 15-16, height 50-60 cm, g ai/ha A-1 18, B 70, C-12 1066
  % Herbicidal activity: 5%
[4]; Table 8.1, 7 DAT, stage 15-16, height 50-60 cm, g ai/ha A-1 18, B 90, C-12 1066
  % Herbicidal activity: 5%
[4]; ZEAMX, growth stage 15-16, height 40-60 cm, B 70 g ai/ha, 7 DAT, Table 4.2
  % Herbicidal activity: 5%
[4]; ZEAMX, growth stage 15-16, height 40-60 cm, B 70 g ai/ha, 21 DAT, Table 4.4
  % Herbicidal activity: 3%
[4]; ZEAMX, growth stage 15-16, height 40-60 cm, B 90 g ai/ha, 7 DAT, Table 4.2
  % Herbicidal activity: 5%
